{"source": "patent US11052089B2", "about": "“Methods for inhibiting alpha-v beta-3 expression on cancer stem cells and inhibiting progression to a cancer stem cell phenotype” (The Regents of the University of California, priority 2014, dated 2021)", "type_in_all_cases": "cell-based", "key": {"[1]": {"tested_on": "ITGB3, Nanog and OCT4 induction", "experiment": "mRNA induction of ITGB3, Nanog, OCT4 with GSKJ-4 (FIG. 3, FIG. 11)", "details": "relative to no serum", "description": "(§1) FIG. 3A, FIG. 3B, FIG. 3C and FIG. 3D graphically illustrate data showing that treatment with histone modification inhibitor(s) suppresses the stress induced drug resistant phenotype: FIG. 3A illustrates fold expression mRNA relative to serum after ITGB3 induction of control vehicle, 0.10 μM GSKJ4, and 0.25 μM GSKJ4; FIG. 3B illustrates fold expression mRNA relative to serum after Nanog induction of control vehicle, 0.10 μM GSKJ4, and 0.25 μM GSKJ4; FIG. 3C illustrates nM Erlotinib under conditions comprising serum, no serum and no serum and GSKJ4; and FIG. 3D illustrates fold expression mRNA relative to serum after ITGB3 induction with serum, no serum and no serum and GSKJ4.\nFIG. 11A schematically illustrates, and FIG. 11B, FIG. 11C, FIG. 11D and FIG. 11E graphically illustrate that GSKJ-4, which targets histone demethylase JMJD3, suppresses β3 expression as well as pluripotent genes Nanog and OCT4, with the conclusion that GSKJ-4 suppresses ITGB3, Nanog and OCT4 induction by inhibiting JMJD3-targeted H3K27me3 demethylation; and FIG. 11B, FIG. 11C, FIG. 11D and FIG. 11E graphically illustrate fold induction mRNA relative to no serum as a function of GSKJ-4 suppression of ITGB3, Nanog and OCT4 induction, with FIG. 11B, FIG. 11C, FIG. 11D and FIG. 11E illustrating levels of ITGB3, Nanog, OCT4 and SOX2, respectively."}, "[2]": {"tested_on": "stress induced drug resistant phenotype", "experiment": "Stress induced drug resistant phenotype, Erlotinib (FIG. 3C)", "details": "serum, no serum, no serum and GSKJ4", "description": "as §1"}, "[3]": {"tested_on": "lung cancer cells (HCC827)", "experiment": "14 day assay for cell surface induction of integrin β3 by nutrient deprivation, cell sorting (FIG. 13, FIG. 14)", "details": "HCC827, nutrient deprivation (no serum)"}, "ITGB3": {"tested_on": "ITGB3", "experiment": "ITGB3 induction in the presence of HAT inhibitor (FIG. 2)", "text": "FIG. 2 graphically illustrates data showing that ITGB3 induction is suppressed in the presence of histone acetyltransferase (HAT) inhibitor anacardic acid."}, "[4]": {"tested_on": "integrin β3 expression in HCC827 lung cancer cells", "experiment": "Stress induced integrin β3 and stem cell gene expression, gels (FIG. 12)", "details": "nutrient deprivation (without serum), 0.1 uM", "text": "FIGS. 12A and 12B illustrate data showing the knockdown of P300 histone acetyl transferase (HAT), a known enzyme that targets H3K27ac, in HCC827 lung cancer cells. Histone acetyl transferase (acetyl p300) activity is increased during nutrient deprivation (without serum) leading to integrin β3 expression, which prevents stress-induced expression of integrin β3 and stem cell genes. Increase in histone acetyltransferase (HAT) p300 activity leads to upregulation of integrin β3. Loss of p300 histone acetyltransferase activity prevents the upregulation of integrin β3. Similar to chemical inhibition of HAT activity with anacardic acid at 0.1 uM concentration, a genetic approach was used to knockdown p300 histone acetyl transferase (HAT), a known enzyme that targets H3K27ac prevents expression of integrin β3 and stem cell genes."}}}
{"compound": "CCOC(=O)CCNc1cc(N2CCc3ccccc3CC2)nc(-c2ccccn2)n1", "note": "[GSKJ4]", "values": [{"measurement": "ITGB3 (β3) induction, fold induction mRNA", "setting": "[1]", "value": "suppresses"}, {"measurement": "Nanog induction, fold induction mRNA", "setting": "[1]", "value": "suppresses"}, {"measurement": "OCT4 induction, fold induction mRNA", "setting": "[1]", "value": "suppresses"}, {"measurement": "stress induced drug resistant phenotype", "setting": "[2]", "value": "suppresses"}, {"measurement": "expansion of integrin β3 expressing stem population", "setting": "[3]", "value": "prevents the expansion"}, {"measurement": "formation of the heterodimeric αVβ3 cell surface expression", "setting": "[3]", "value": "prevents"}, {"measurement": "induction of integrin β3 gene expression", "setting": "[3]", "value": "prevents the induction"}]}
{"compound": "C=CC/C=C\\C/C=C\\CCCCCCCc1cccc(O)c1C(=O)O", "note": "[anacardic acid, 2-hydroxy-6-[(8Z,11Z)-pentadeca-8,11,14-trienyl]benzoic acid]", "values": [{"measurement": "ITGB3 induction", "setting": "ITGB3", "value": "suppressed"}, {"measurement": "downstream stem cell genes expression", "setting": "[4]", "value": "prevents"}, {"measurement": "stress induced integrin β3 expression", "setting": "[4]", "value": "prevents"}]}
